Several values for one entry are separate records, joined by “and”; a condition that tells them apart may be missing. Equal values may be shown once.
Experiments:
[1] = mn = molality of the nth substance listed, in mol/kg; settings: 100 kPa, Liquid; for speed of sound: Frequency=3 MHz, Single path-length method; for mass density: Vibrating tube method
[2] = 100 kPa, Liquid, Frequency=3 MHz, Single path-length method

OCCO [1,2-ethanediol] + O
[1]
Settings | mass density, m1 = 0.09889 [kg/m3] | mass density, m1 = 0.1989 [kg/m3] | mass density, m1 = 0.2997 [kg/m3] | mass density, m1 = 0.3948 [kg/m3] | mass density, m1 = 0.5016 [kg/m3] | speed of sound, m1 = 0.09889 [m/s] | speed of sound, m1 = 0.1989 [m/s] | speed of sound, m1 = 0.2997 [m/s] | speed of sound, m1 = 0.3948 [m/s] | speed of sound, m1 = 0.5016 [m/s]
293.15 K | 999.059 | 999.884 | 1000.68 | 1001.4 | 1002.2 | 1485.5 | 1488.3 | 1491.2 | 1493.9 | 1496.8
298.15 K | 997.877 | 998.688 | 999.473 | 1000.18 | 1000.96 | 1498.9 | 1501.7 | 1504.3 | 1506.6 | 1509.1
303.15 K | 996.471 | 997.262 | 998.033 | 998.733 | 999.48 | 1511.1 | 1513.8 | 1516.2 | 1518.7 | 1521.2
308.15 K | 994.84 | 995.613 | 996.362 | 997.038 | 997.764 | 1521.8 | 1524 | 1526.2 | 1528.3 | 1530.3

Nc1ccccc1 [aniline] + O
[1]
Settings | mass density, 293.15 K | mass density, 298.15 K | mass density, 303.15 K | mass density, 308.15 K | speed of sound, 293.15 K [m/s] | speed of sound, 298.15 K [m/s] | speed of sound, 303.15 K [m/s] | speed of sound, 308.15 K
m1 = 0.1 | 998.568 kg/m3 and 998.57 kg/m3 | 997.42 kg/m3 and 997.421 kg/m3 | 995.98 kg/m3 and 995.983 kg/m3 | 994.35 kg/m3 and 994.351 kg/m3 | 1483.3 | 1497.2 | 1509.5 | 1520.5 m/s
m1 = 0.2 | 998.97 kg/m3 and 998.972 kg/m3 | 997.81 kg/m3 and 997.813 kg/m3 | 996.33 kg/m3 and 996.326 kg/m3 | 994.68 kg/m3 and 994.684 kg/m3 | 1485 | 1498.7 | 1510.8 | 1521.9 m/s and 1520.5 m/s
m1 = 0.3 | 999.36 kg/m3 and 999.363 kg/m3 | 998.21 kg/m3 and 998.208 kg/m3 | 996.705 kg/m3 and 996.71 kg/m3 | 995.035 kg/m3 and 995.04 kg/m3 | 1486.8 | 1500 | 1512.1 | 1521.9 m/s and 1523.3 m/s
m1 = 0.4 | 999.783 kg/m3 and 999.78 kg/m3 | 998.592 kg/m3 and 998.59 kg/m3 | 997.079 kg/m3 and 997.08 kg/m3 | 995.385 kg/m3 and 995.39 kg/m3 | 1488.6 | 1502 | 1513.5 | 1523.6 m/s and 1524.7 m/s

OCCOCCO [diethylene glycol] + O
[1]
Settings | mass density, m1 = 0.09849 [kg/m3] | mass density, m1 = 0.1974 [kg/m3] | mass density, m1 = 0.295 [kg/m3] | mass density, m1 = 0.4101 [kg/m3] | mass density, m1 = 0.5006 [kg/m3] | speed of sound, m1 = 0.09849 [m/s] | speed of sound, m1 = 0.1974 [m/s] | speed of sound, m1 = 0.295 [m/s] | speed of sound, m1 = 0.4101 [m/s] | speed of sound, m1 = 0.5006 [m/s]
293.15 K | 999.647 | 1001.03 | 1002.36 | 1003.86 | 1004.99 | 1487.7 | 1493.1 | 1498.1 | 1504.1 | 1508.3
298.15 K | 998.458 | 999.78 | 1001.03 | 1002.49 | 1003.59 | 1501.2 | 1506 | 1510.8 | 1516.2 | 1520.3
303.15 K | 997.071 | 998.395 | 999.643 | 1001.05 | 1002.15 | 1513.1 | 1517.6 | 1522 | 1526.9 | 1530.6
308.15 K | 995.44 | 996.778 | 998.046 | 999.471 | 1000.53 | 1523.5 | 1527.5 | 1531.5 | 1536.1 | 1539.6

OCCOCCOCCO [triethylene glycol] + O
[1]
Settings | mass density, m1 = 0.0965 [kg/m3] | mass density, m1 = 0.2002 [kg/m3] | mass density, m1 = 0.292 [kg/m3] | mass density, m1 = 0.3986 [kg/m3] | mass density, m1 = 0.4988 [kg/m3] | speed of sound, m1 = 0.0965 [m/s] | speed of sound, m1 = 0.2002 [m/s] | speed of sound, m1 = 0.292 [m/s] | speed of sound, m1 = 0.3986 [m/s] | speed of sound, m1 = 0.4988 [m/s]
293.15 K | 1000.31 | 1002.46 | 1004.29 | 1006.36 | 1008.22 | 1489.9 | 1498 | 1504.8 | 1513.1 | 1520.5
298.15 K | 999.126 | 1001.27 | 1003.11 | 1005.14 | 1006.99 | 1503.5 | 1511 | 1517.6 | 1525.4 | 1532.2
303.15 K | 997.728 | 999.858 | 1001.67 | 1003.69 | 1005.54 | 1514.8 | 1521.8 | 1528 | 1535.1 | 1541.7
308.15 K | 996.095 | 998.216 | 1000.01 | 1002.02 | 1003.85 | 1525.1 | 1531.3 | 1536.9 | 1543.3 | 1549.4

O [water]
[2]
Settings | speed of sound [m/s]
293.15 K | 1481.1
298.15 K | 1495.8
308.15 K | 1519.1
